These are literature values, as cited in US8067401B2, “Compounds and compositions for treating infection” (priority 2007, dated 2011).

This series deals with HIV-1.

Turning to Prunellin, the “minimum inhibition concentration against HIV-1 in vitro” value was 2.2 µg/mL.
